US12668568B2, “Adamantanyl-substituted benzamide compounds and their use as P2X7 receptor antagonists” (The University of Sydney, priority 2018, dated 2026)

How the values were obtained:
hP2X7R = molecular target: T1, hP2X7R (Homo sapiens, UniProt Q99572); assay: Radioligand binding assay, displacement of [3H]-Compound 31, HEK-hP2X7 membranes; conditions: displacement of tritium-labeled benzamide 31-t3, HEK cells expressing hP2X7R; mean ± standard deviation, n >3; read-out: Binding affinity Ki
T1 sequence (Q99572 1-595): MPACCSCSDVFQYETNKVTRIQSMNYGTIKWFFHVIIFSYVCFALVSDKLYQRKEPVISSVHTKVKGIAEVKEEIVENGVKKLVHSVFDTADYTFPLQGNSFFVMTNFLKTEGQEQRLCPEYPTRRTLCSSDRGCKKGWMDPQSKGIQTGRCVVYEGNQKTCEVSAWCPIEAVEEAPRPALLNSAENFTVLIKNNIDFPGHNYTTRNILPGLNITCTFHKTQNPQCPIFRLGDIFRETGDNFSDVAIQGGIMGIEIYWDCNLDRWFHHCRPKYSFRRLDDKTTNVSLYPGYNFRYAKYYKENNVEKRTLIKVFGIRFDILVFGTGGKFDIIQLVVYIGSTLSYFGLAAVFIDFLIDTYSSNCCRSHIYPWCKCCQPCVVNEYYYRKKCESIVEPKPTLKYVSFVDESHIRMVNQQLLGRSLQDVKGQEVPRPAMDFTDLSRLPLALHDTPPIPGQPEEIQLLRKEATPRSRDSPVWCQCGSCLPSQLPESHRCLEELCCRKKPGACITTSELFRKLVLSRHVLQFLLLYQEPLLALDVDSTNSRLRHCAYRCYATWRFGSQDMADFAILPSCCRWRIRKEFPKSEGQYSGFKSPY
Method: Homogenates were centrifuged at 48 000 g for 20 min at 4° C., the supernatant discarded and the pellet resuspended in Tris HCl 50 mM (pH 7.4 at 4° C.). Two additional spins at 48 000 g followed, discarding the supernatant each time and resuspending the pellet in 50 mM Tris HCl each time. Protein content was determined via bicinchoninic acid (BCA) assay (Pierce Biotechnology Inc., Rockford), the membrane solution supplemented with 0.1% bovine serum albumin (BSA) and stored at −80° C.
The incubation was terminated by rapid filtration through a glass fibre filter (GF/B; Millipore, Ireland), presoaked beforehand with 0.3% PEI) and washed 10 times with 50 mM Tris HCl (4° C.). The filters were then allowed to dry overnight before adding Microscint-0 scintillation cocktail (Perkin Elmer). […] For Kd and Bmax determination the specific binding was calculated (total binding minus non-specific binding) and analyzed using a one-site binding model (hyperbolic). The total binding and non-specific binding were also plotted for comparison (see FIG. 4). […] The extra sum of squares F-test was used to evaluate three potential models to fit the data; a one-site fit (with hill slope constrained to 1), a one-site fit (with hill slope as a variable) and a two-site fit. […] The Koff from dissociation studies was calculated using non-linear regression (exponential model) and then, in combination with the data from association studies, used to calculate the Kon. All data were analyzed using GraphPad Prism 5.

CYP1A2 = molecular target: T2, CYP1A2 (Homo sapiens, UniProt P05177); assay: Cytochrome profiling CYP1A2 (baculosomes); assay type: in vitro ADME; conditions: probe fluorogenic probe substrate (not named), 10 μM substrate
T2 construct: host or cells: insect cells infected with recombinant baculovirus (microsomes)
T2 sequence (P05177 1-516): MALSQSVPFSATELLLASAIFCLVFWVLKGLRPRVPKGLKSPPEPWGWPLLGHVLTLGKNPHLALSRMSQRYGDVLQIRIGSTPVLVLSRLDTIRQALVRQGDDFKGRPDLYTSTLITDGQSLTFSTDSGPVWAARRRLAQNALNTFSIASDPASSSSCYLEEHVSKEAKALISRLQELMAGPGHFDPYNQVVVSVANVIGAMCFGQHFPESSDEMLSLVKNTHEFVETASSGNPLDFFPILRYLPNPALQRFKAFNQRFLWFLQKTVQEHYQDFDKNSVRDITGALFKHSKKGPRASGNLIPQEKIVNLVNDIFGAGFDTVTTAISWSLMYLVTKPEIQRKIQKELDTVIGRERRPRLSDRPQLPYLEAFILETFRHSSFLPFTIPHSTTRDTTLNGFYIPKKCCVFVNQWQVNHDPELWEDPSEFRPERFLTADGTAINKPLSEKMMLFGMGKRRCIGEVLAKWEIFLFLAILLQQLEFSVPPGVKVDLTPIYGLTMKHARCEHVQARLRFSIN
From the text: Cytochrome P450 (abbreviated CYP, P450 or CYP450) belong to very large and diverse superfamily of haemoproteins which accept both exogenous and endogenous compounds as substrates in enzymatic reactions and play a major role in drug metabolism. Although this class has more than 50 enzymes just 5 of them (CYP1A2, CYP2C9, CYP2C19, CYP2D6 and CYP3A4) are able to metabolise almost 90% of all drugs. Inhibition of these enzymes is one of the major reasons for drug-drug interactions. Consequently, detailed CYP inhibition profiles are a regulatory requirement for all new drugs. Inhibition potencies against the five most relevant CYP isoforms is performed using baculosomes; microsomes prepared from insect cells infected with recombinant baculovirus containing cDNA for a specific human P450 isozyme. The baculosomes are incubated with drug at a concentration of 1 μM in the presence of a probe substrate for 60 minutes at 37° C. The probe is normally metabolised by the baculosomes to produce a fluorescent metabolite. A substrate drug will compete for the isozyme and reduce the metabolism of the probe resulting in a decrease in the fluorescent signal. The percent inhibition due to the presence of the test compound is calculated using the following equation: [formula] • X=fluorescent intensity observed in the presence of test compound • A=fluorescent intensity observed in control • B=fluorescent intensity observed in the presence of the probe control

Structure (SMILES)	Ki (hP2X7R) [nM]	inhibition at 60 min, 1 μM (CYP1A2) [%]
COc1ccc(Cl)c(C(=O)NCC23CC4CC(CC(C4)C2)C3)c1 [Compound 31, reference compound]	8.5	25.7
COc1ccc(Cl)c(C(=O)NCC23CC4CC(CC(F)(C4)C2)C3)c1 [Compound 3, 2-Chloro-N-((3-fluoroadamantan-1-yl)methyl)-5-methoxybenzamide]	21.9 ± 0.5	7.86
COc1ccc(Cl)c(C(=O)NCC23CC4(F)CC(F)(CC(F)(C4)C2)C3)c1 [Compound 1, 2-Chloro-N-((3,5,7-trifluoroadamantan-1-yl)methyl)-5-methoxybenzamide]	–	5.48
COc1ccc(Cl)c(C(=O)NCC23CC4CC(F)(CC(F)(C4)C2)C3)c1 [Compound 2, 2-Chloro-N-((3,5-difluoroadamantan-1-yl)methyl)-5-methoxybenzamide]	23 ± 5	7.04
